24 compounds from US20250154152A1, “INHIBITORS OF NAEGLERIA FOWLERI” (Wisconsin Alumni Research Foundation, priority 2023, published 2025) can be followed below.

Molecules are shown by their SMILES. A value given as a limit tells only on which side of the number the result lay.

In the experiment the test system is N. fowleri strain Nf69 (ATCC 30215) trophozoites. As to the kind of experiment: Determination of EC50 values against Naegleria fowleri (growth inhibition, CellTiter Glo, 48 h). Type of experiment: cell-based. Conditions: ATCC30215, N. fowleri Nf69 trophozoites, 48 h culture, 37° C., CellTiter Glo luminescence, read-out: EC50 uM against N. fowleri. The protocol: N. fowleri strain Nf69 (ATCC 30215) trophozoites were cultured axenically. Amoeba were seeded at […] in 100 μL of the indicated medium in white TC-treated 96-well plates (Thermo Scientific Nunc Microwell 136101). Cells were seeded into Nelson's Complete Media (NCM, 0.17% liver infusion broth (BD Difco, Franklin Lakes, NJ), 0.17% glucose, 0.012% sodium chloride, 0.0136% potassium phosphate monobasic, 0.0142% sodium phosphate dibasic, 0.0004% calcium chloride, 0.0002% magnesium sulfate, 10% heat-inactivated fetal bovine serum (FBS), 1% penicillin-streptomycin) at 37° C. in 96-well tissue culture plates. Vehicle or compound at concentrations initially ranging from 20 to 0.375 μM were added to cells, followed by culture for 48 h (37° C., 5% CO2). Plates were equilibrated to rt for 15 min and CellTiter Glo reagent was added followed by orbital shaking for 2 min. After an additional incubation (rt, 10 min), luminescence was scored on a BioTek Synergy H1 microplate reader. Luminescence values were used to calculate percent cell growth inhibition (based on controls) for each concentration of compound tested. Averages of triplicates were calculated and fit to dose-response curves for the determination of EC50 values, using Prism 9.0 (GraphPad Software, San Diego, CA). […] Other controls included media alone, cells and media, and vehicle and media. For very potent compounds, concentration of reagent in the dose-response assays were reduced to provide an appropriate range for EC50 value resolution.
Compounds of the present technology were tested for growth inhibition of N. fowleri per General Procedure 13, above.
(ATP-based viability assays read luminescence as a measure of living cells.)

Regarding `CN1CCC[C@H]2c3nc4cc(Cl)c(Cl)cc4c(=O)n3CC[C@H]21` (racemic) [cis-5q, (±)-(4aR,13bR)-10,11-dichloro-4-methyl-1,2,3,4,4a,5,6,13b-octahydro-8H-[1,6]naphthyridino[5,6-b]quinazolin-8-one], the EC50 (in general, the concentration at which the effect is half-maximal) lay in the range of 0.1 to 1 µM.
`COc1cc2nc3n(c(=O)c2cc1OC)CC[C@@H]1[C@H]3CCCN1C` (racemic) [cis-5r, (±)-(4aR,13bR)-10,11-dimethoxy-4-methyl-1,2,3,4,4a,5,6,13b-octahydro-8H-[1,6]naphthyridino[5,6-b]quinazolin-8-one]: the EC50 is more than 10 µM.
The same measure for `CN1CCC[C@H]2c3nc4cc(Cl)c(C(F)(F)F)cc4c(=O)n3CC[C@H]21` (racemic) [cis-5s, (±)-(4aR,13bR)-11-chloro-4-methyl-10-(trifluoromethyl)-1,2,3,4,4a,5,6,13b-octahydro-8H-[1,6]naphthyridino[5,6-b]quinazolin-8-one]: 0.1 to 1 µM.
On to `COc1cc(Cl)cc2c(=O)n3c(nc12)[C@@H]1CCCN(C)[C@@H]1CC3` (racemic) [cis-5t, (±)-(4aR,13bR)-10-chloro-12-methoxy-4-methyl-1,2,3,4,4a,5,6,13b-octahydro-8H-[1,6]naphthyridino[5,6-b]quinazolin-8-one], for which the EC50 was more than 10 µM.
Then `CN1CCO[C@H]2c3nc4ccccc4c(=O)n3CC[C@H]21` (racemic) [cis-5v, (±)-(4aR,13bR)-4-methyl-3,4,4a,5,6,13b-hexahydro-[1,4]oxazino[2′,3′:3,4]pyrido[2,1-b]quinazolin-8(2H)-one], with more than 10 µM; and `CN1CCO[C@H]2c3nc4ccc(Cl)cc4c(=O)n3CC[C@H]21` (racemic) [cis-5w, (±)-(4aR,13bR)-10-chloro-4-methyl-3,4,4a,5,6,13b-hexahydro-[1,4]oxazino[2′,3′:3,4]pyrido[2,1-b]quinazolin-8(2H)-one], with more than 10 µM; and `CN1CCO[C@H]2c3nc4ccc(C(F)(F)F)cc4c(=O)n3CC[C@H]21` (racemic) [cis-5x, (±)-(4aR,13bR)-4-methyl-10-(trifluoromethyl)-3,4,4a,5,6,13b-hexahydro-[1,4]oxazino[2′,3′:3,4]pyrido[2,1-b]quinazolin-8(2H)-one], with more than 10 µM.
For the compound `CN1CCN(C)[C@H]2c3nc4ccccc4c(=O)n3CC[C@H]21` (racemic) [cis-5y, (±)-(4aR,13bR)-1,4-dimethyl-1,2,3,4,4a,5,6,13b-octahydro-8H-pyrazino[2′,3′:3,4]pyrido[2,1-b]quinazolin-8-one], the EC50 is more than 10 µM.
As to `CCN1CCC[C@H]2c3nc4ccccc4c(=O)n3CC[C@H]21` (racemic) [cis-5z, (±)-(4aR,13bR)-4-ethyl-1,2,3,4,4a,5,6,13b-octahydro-8H-[1,6]naphthyridino[5,6-b]quinazolin-8-one], the EC50 was more than 10 µM.
The same measure for `Cc1ccc(-c2ccc3nc4n(c(=O)c3c2)CC[C@@H]2[C@H]4CCCN2C)cn1` (racemic) [cis-9a]: more than 10 µM; for `CN1CCC[C@H]2c3nc4cc(-c5ccccc5)c(Cl)cc4c(=O)n3CC[C@H]21` (racemic) [cis-9b, (±)-(4aR,13bR)-10-chloro-4-methyl-11-phenyl-1,2,3,4,4a,5,6,13b-octahydro-8H-[1,6]naphthyridino[5,6-b]quinazolin-8-one]: 1 to 10 µM; for `COc1ccc2c(=O)n3c(nc2c1)[C@@H]1CCCN(C)[C@@H]1CC3` (racemic) [cis-50, (±)-(4aR,13bR)-11-methoxy-4-methyl-1,2,3,4,4a,5,6,13b-octahydro-8H-[1,6]naphthyridino[5,6-b]quinazolin-8-one]: 1 to 10 µM.
Regarding `CN1CCC[C@@H]2c3nc4ccccc4c(=O)n3CC[C@H]21` (racemic) [trans-5a, (±)-(4aR,13bS)-4-methyl-1,2,3,4,4a,5,6,13b-octahydro-8H-[1,6]naphthyridino[5,6-b]quinazolin-8-one], the EC50 was more than 10 µM.
Consider `O=c1c2ccccc2nc2n1CC[C@@H]1[C@@H]2CCCN1Cc1ccccc1` (racemic) [trans-5aa, (±)-(4aR,13bS)-4-benzyl-1,2,3,4,4a,5,6,13b-octahydro-8H-[1,6]naphthyridino[5,6-b]quinazolin-8-one], for which the EC50 is more than 10 µM.
Consider `Cc1cccc2nc3n(c(=O)c12)CC[C@@H]1[C@@H]3CCCN1C` (racemic) [trans-5b, (±)-(4aR,13bS)-4,9-dimethyl-1,2,3,4,4a,5,6,13b-octahydro-8H-[1,6]naphthyridino[5,6-b]quinazolin-8-one], for which the EC50 is more than 10 µM.
As for `CN1CCC[C@@H]2c3nc4cccc(Cl)c4c(=O)n3CC[C@H]21` (racemic) [trans-5c, (±)-(4aR,13bS)-9-chloro-4-methyl-1,2,3,4,4a,5,6,13b-octahydro-8H-[1,6]naphthyridino[5,6-b]quinazolin-8-one], the EC50 was more than 10 µM.
As to `CN1CCC[C@@H]2c3nc4ccc(Cl)cc4c(=O)n3CC[C@H]21` (racemic) [trans-5d, (±)-(4aR,13bS)-10-chloro-4-methyl-1,2,3,4,4a,5,6,13b-octahydro-8H-[1,6]naphthyridino[5,6-b]quinazolin-8-one], the EC50 lay within 0.1 to 1 µM.
As to `CN1CCC[C@@H]2c3nc4ccc(Br)cc4c(=O)n3CC[C@H]21` (racemic) [trans-5e, (±)-(4aR,13bS)-10-bromo-4-methyl-1,2,3,4,4a,5,6,13b-octahydro-8H-[1,6]naphthyridino[5,6-b]quinazolin-8-one], the EC50 was in the range of 1 to 10 µM.
Then `CN1CCC[C@@H]2c3nc4ccc(F)cc4c(=O)n3CC[C@H]21` (racemic) [trans-5f, (±)-(4aR,13bS)-10-fluoro-4-methyl-1,2,3,4,4a,5,6,13b-octahydro-8H-[1,6]naphthyridino[5,6-b]quinazolin-8-one], with more than 10 µM; and `COc1ccc2nc3n(c(=O)c2c1)CC[C@@H]1[C@@H]3CCCN1C` (racemic) [trans-5g, (±)-(4aR,13bS)-10-methoxy-4-methyl-1,2,3,4,4a,5,6,13b-octahydro-8H-[1,6]naphthyridino[5,6-b]quinazolin-8-one], with 1 to 10 µM; and `COc1cc2nc3n(c(=O)c2cc1Cl)CC[C@@H]1[C@@H]3CCCN1C` (racemic) [trans-5gg, (±)-(4aR,13bS)-10-chloro-11-methoxy-4-methyl-1,2,3,4,4a,5,6,13b-octahydro-8H-[1,6]naphthyridino[5,6-b]quinazolin-8-one], with 0.1 to 1 µM.
Then `Cc1ccc2nc3n(c(=O)c2c1)CC[C@@H]1[C@@H]3CCCN1C` (racemic) [trans-5h, (±)-(4aR,13bS)-4,10-dimethyl-1,2,3,4,4a,5,6,13b-octahydro-8H-[1,6]naphthyridino[5,6-b]quinazolin-8-one], with 1 to 10 µM; and `CN1CCC[C@@H]2c3nc4ccc(C#N)cc4c(=O)n3CC[C@H]21` (racemic) [trans-5i, (±)-(4aR,13bS)-4-methyl-8-oxo-2,3,4,4a,5,6,8,13b-octahydro-1H-[1,6]naphthyridino[5,6-b]quinazoline-10-carbonitrile], with 0.1 to 1 µM; and `CN1CCC[C@@H]2c3nc4ccc(C(F)(F)F)cc4c(=O)n3CC[C@H]21` (racemic) [trans-5j, (±)-(4aR,13bS)-4-methyl-10-(trifluoromethyl)-1,2,3,4,4a,5,6,13b-octahydro-8H-[1,6]naphthyridino[5,6-b]quinazolin-8-one], with 1 to 10 µM.
